Measurements: the supplement of paper PMC8988213
Where a name gives a salt, the structure may show the parent alone.

Assays:
[1] = test system: ID188 patient-derived PDAC 2D line (pre-FOLFIRINOX); experiment: normalised area under dose-response curve (viability relative to DMSO, 7 doses up to 10 µM) (fraction (AUC)); higher = less sensitive (more viability retained); conditions: 72 h; top dose: 10 µM
Description: (§1)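 Patient-derived 2D PDAC cells (ID188 pre-FOLFIRINOX, passage 5+27; ID211 post-FOLFIRINOX, passage 9+11), 1,500-3,000 cells/well in 96-well plates, were treated with a 415-compound Selleck library in seven concentrations (3-fold dilution series, top 10 µM) for 72 h. Viability was read by CellTiter-Glo ATP luminescence, normalised to the DMSO control, and the area under the dose-response curve was computed with the GRmetrics R package; a lower AUC means higher sensitivity.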

[2] = test system: ID211 patient-derived PDAC 2D line (post-FOLFIRINOX); experiment: as above; conditions: 72 h; top dose: 10 µM
Description: as §1

SMILES	normalised area under dose-response curve [1]	normalised area under dose-response curve [2]
Nc1nccc(Oc2ccc(NC(=O)c3c[nH]cc(-c4ccc(F)cc4)c3=O)cc2F)c1Cl	0.939	0.911
C#Cc1cccc(Nc2ncnc3cc(OC)c(OCCCCCCC(=O)NO)cc23)c1 [CUDC-101]	0.827	0.765
CCS(=O)(=O)N1CCC([C@@H](C)n2c(C)c(C(=O)NCc3c(OC)cc(C)[nH]c3=O)c3ccccc32)CC1 [CPI-169]	0.924	0.874
NCCCC[C@H](NC(=O)[C@@H](NC(=O)[C@H](Cc1c[nH]c2ccccc12)NC(=O)[C@H](CCCCN)NC(=O)[C@H](CCCCN)NC(=O)[C@H](Cc1c[nH]c2ccccc12)NC(=O)[C@H](Cc1c[nH]c2ccccc12)NC(=O)[C@H](CCCCN)NC(=O)[C@@H](N)CCCCN)C(c1ccccc1)c1ccccc1)C(N)=O [LTX-315]	0.943	0.804
Cc1[nH]c(/C=C2\C(=O)Nc3ccccc32)c(C)c1CCC(=O)O [Orantinib (TSU-68, SU6668)]	0.845	0.843
C=CC(=O)N1C/C(=C\c2ccc([N+](=O)[O-])cc2)C(=O)/C(=C/c2ccc([N+](=O)[O-])cc2)C1 [b-AP15]	0.504	0.671
CC[C@H](NC(=O)[C@H](C)NC)C(=O)N1C[C@@H](O)C[C@H]1Cc1c(-c2[nH]c3cc(F)ccc3c2C[C@@H]2C[C@H](O)CN2C(=O)[C@H](CC)NC(=O)[C@H](C)NC)[nH]c2cc(F)ccc12 [Birinapant]	0.315	1.02
O=C(Nc1ccc(OC(F)(F)F)cc1)c1sccc1NCc1ccnc2ccccc12 [OSI-930]	0.904	0.819
Cn1cc(-c2ccc3c(c2)CCN3C(=O)Cc2cccc(C(F)(F)F)c2)c2c(N)ncnc21	0.915	0.852
O=C(O)CC[C@H]1CC[C@@](c2cc(F)ccc2F)(S(=O)(=O)c2ccc(Cl)cc2)CC1 [MK-0752]	0.888	0.83
CO[C@@H](C(=O)N1Cc2[nH]nc(NC(=O)c3ccc(N4CCN(C)CC4)cc3)c2C1)c1ccccc1	0.766	0.611
COc1ccccc1S(=O)(=O)Nc1ccc2c(c1)CN(C)C(=O)N2	0.921	0.753
Cn1cc(C2=C(c3cn(C4CCN(Cc5ccccn5)CC4)c4ccccc34)C(=O)NC2=O)c2ccccc21	0.917	0.933
C/C(=N\NC(=O)c1cccc(S(=O)(=O)N2CCOCC2)c1)c1cc(Cl)ccc1O [SP2509]	0.86	0.824
N.N.[Cl][Pt][Cl] [Cisplatin]	0.95	0.86
O=C(/C=C/c1ccc2ccccc2n1)c1ccncc1 [PFK15]	0.911	0.778
N[C@@H](Cc1ccc(N(CCCl)CCCl)cc1)C(=O)O [Melphalan]	0.87	0.853
O=c1cc(N2CCOCC2)oc2c(-c3ccc4c(c3)OCCO4)csc12 [SF2523]	0.968	0.768
O=C(O)Cc1cccc(OCCCN(Cc2cccc(C(F)(F)F)c2Cl)CC(c2ccccc2)c2ccccc2)c1 [GW3965 HCl]	0.923	0.825
O=C(NCC(=O)N1CCCC1)Nc1ccc2cnccc2c1 [SGC707]	0.955	0.863
O=C(c1cncc(Br)c1)N1CCC(N2CCCC2)CC1 [UNC669]	0.922	0.946
CC[C@H](C)n1cc(C)c2c(C(=O)NCc3c(C)cc(C)[nH]c3=O)cc(-c3ccc(N4CCNCC4)nc3)cc21 [GSK126]	1.02	0.95

SMILES	normalised area under dose-response curve [1]	normalised area under dose-response curve [2]
CCCS(=O)(=O)Nc1ccc(F)c(C(=O)c2c[nH]c3ncc(Cl)cc23)c1F [PLX-4720]	0.886	0.842
O=C(CSc1nc2c(c(=O)n1-c1ccccc1)SCC2)Nc1ccc(-c2ccccc2)cn1 [IWP-L6]	0.968	0.804
CCCN(CCC)C(=O)C1=Cc2ccc(-c3ccc(C(=O)N4CCCC4)cc3)cc2N=C(N)C1 [Motolimod (VTX-2337)]	0.969	0.822
FC(F)(F)c1ccc(/C=C/c2nc(COc3ccc(CCCCn4ccnn4)cc3)co2)cc1 [Mubritinib (TAK 165)]	0.735	0.784
CC[C@@H]1C(=O)N(C)c2cnc(Nc3ccc(C(=O)N[C@H]4CC[C@H](N5CCN(CC6CC6)CC5)CC4)cc3OC)nc2N1C(C)C [Volasertib (BI 6727)]	0.701	0.707
CNCc1ccc(-c2cc(-c3nc(-c4ccc(S(=O)(=O)C(C)C)cc4)cnc3N)on2)cc1 [VE-822]	0.693	0.888
Cc1ncc(Cl)cc1NCc1ccc(C(=O)N[C@@H](CC2CCCC2)C(=O)NC2CC2)s1	0.923	0.865
N#Cc1c(O)c2c(-c3ccc(-c4ccccc4O)cc3)csc2[nH]c1=O	0.977	0.782
COc1cc2nc(N3CCCC3)nc(NCCCCCN3CCCC3)c2cc1OC [UNC0379]	0.943	0.829
COc1ccc(N2C(=O)/C(=C\c3ccc([N+](=O)[O-])s3)SC2=S)cc1 [CCF642]	0.746	0.874
CN(C)CC#Cc1ccc(OCCCc2sc(N3CCc4cccc(C(=O)Nc5nc6ccccc6s5)c4C3)nc2C(=O)O)c(F)c1	0.789	0.592
O=C(Nc1cccnc1)N1CCC(Cc2cccc(Oc3ccc(C(F)(F)F)cn3)c2)CC1 [PF-3845]	0.905	0.912
c1ccc(-c2nn3c(c2-c2ccnc4cc(OCCN5CCOCC5)ccc24)CCC3)nc1	0.974	0.861
CC(C)(C)C(=O)Nc1ccc2c(c1)C(=O)C(=O)c1ccccc1-2 [SF1670]	0.966	0.809
CCCOc1ccn2c(C(C)=O)cc(-c3ccccc3S(C)(=O)=O)c2c1 [GSK2801]	0.964	0.782
O=C([O-])C(Cl)Cl.[Na+] [Sodium dichloroacetate (DCA)]	0.996	0.951
COC(=O)c1ccc2c(c1)NC(=O)/C2=C(\Nc1ccc(N(C)C(=O)CN2CCN(C)CC2)cc1)c1ccccc1 [Nintedanib (BIBF 1120)]	0.915	0.86
C=CC(=O)Nc1cc(Nc2nccc(-c3cn(C)c4ccccc34)n2)c(OC)cc1N(C)CCN(C)C [Osimertinib (AZD9291)]	0.855	0.749
Cc1sc2c(c1C)C(c1ccc(Cl)cc1)=N[C@@H](CC(=O)Nc1ccc(O)cc1)c1nnc(C)n1-2 [OTX015]	0.817	0.631
C[C@@H](Oc1cc(-c2cnn(C3CCNCC3)c2)cnc1N)c1c(Cl)ccc(F)c1Cl	0.772	0.799
CCOC(=O)Nc1cc(-c2ccc(C)c(NS(C)(=O)=O)c2)nn2c(C)nnc12 [Bromosporine]	0.878	0.801
C=CC(=O)Nc1cccc(Nc2nc(Nc3ccc(OCCOC)cc3)ncc2F)c1 [Spebrutinib (CC-292, AVL-292)]	0.709	0.888
